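These data come from cells grown in 96-well plates and exposed to compound for 48 hours at five concentrations. TGI denotes the concentration required for complete inhibition of growth.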
Legend:
Test in all cases: NCI-60 cell line screen, 48 h
HOP-92 NSCLC = test system: HOP-92 NSCLC
TK-10 renal = test system: TK-10 renal
IGROV1 ovarian = test system: IGROV1 ovarian
RPMI-8226 leukemia = test system: RPMI-8226 leukemia
UACC-257 melanoma = test system: UACC-257 melanoma
SK-MEL-28 melanoma = test system: SK-MEL-28 melanoma
NCI/ADR-RES ovarian = test system: NCI/ADR-RES ovarian
SNB-19 CNS = test system: SNB-19 CNS
OVCAR-3 ovarian = test system: OVCAR-3 ovarian
HL-60(TB) leukemia = test system: HL-60(TB) leukemia
LOX IMVI melanoma = test system: LOX IMVI melanoma
HCT-15 colon = test system: HCT-15 colon
UO-31 renal = test system: UO-31 renal
A549 NSCLC = test system: A549 NSCLC
SF-539 CNS = test system: SF-539 CNS
HS 578T breast = test system: HS 578T breast
OVCAR-4 ovarian = test system: OVCAR-4 ovarian
CAKI-1 renal = test system: CAKI-1 renal
NCI-H226 lung = test system: NCI-H226 lung
NCI-H522 lung = test system: NCI-H522 lung
786-0 renal = test system: 786-0 renal
MDA-N = test system: MDA-N
OVCAR-5 ovarian = test system: OVCAR-5 ovarian
NCI-H460 lung = test system: NCI-H460 lung
BT-549 breast = test system: BT-549 breast
SW-620 colon = test system: SW-620 colon
MDA-MB-435 = test system: MDA-MB-435
M14 melanoma = test system: M14 melanoma
OVCAR-8 ovarian = test system: OVCAR-8 ovarian
ACHN renal = test system: ACHN renal
U251 CNS = test system: U251 CNS
HCT-116 colon = test system: HCT-116 colon
MDA-MB-231 breast = test system: MDA-MB-231 breast
SR leukemia = test system: SR leukemia
COLO 205 colon = test system: COLO 205 colon
HT29 colon = test system: HT29 colon
UACC-62 melanoma = test system: UACC-62 melanoma
NCI-H23 lung = test system: NCI-H23 lung
K-562 leukemia = test system: K-562 leukemia
SN12C renal = test system: SN12C renal
SF-268 CNS = test system: SF-268 CNS
KM12 colon = test system: KM12 colon
SK-MEL-2 melanoma = test system: SK-MEL-2 melanoma
A498 renal = test system: A498 renal
SK-MEL-5 melanoma = test system: SK-MEL-5 melanoma
T-47D breast = test system: T-47D breast
MCF7 breast = test system: MCF7 breast
DU-145 prostate = test system: DU-145 prostate
EKVX NSCLC = test system: EKVX NSCLC
MOLT-4 leukemia = test system: MOLT-4 leukemia
HOP-62 NSCLC = test system: HOP-62 NSCLC
PC-3 prostate = test system: PC-3 prostate
SF-295 CNS = test system: SF-295 CNS
HCC-2998 colon = test system: HCC-2998 colon
SK-OV-3 ovarian = test system: SK-OV-3 ovarian
CCRF-CEM leukemia = test system: CCRF-CEM leukemia
MALME-3M melanoma = test system: MALME-3M melanoma
SNB-75 CNS = test system: SNB-75 CNS
RXF 393 renal = test system: RXF 393 renal

CN1CC(c2ccccc2)C(O)(C2(c3ccccc3)CN(C)CC(c3ccccc3)C2=O)C(c2ccccc2)C1 (centres undefined)
TGI (HOP-92 NSCLC): > 100 µM | TGI (TK-10 renal): > 100 µM | TGI (IGROV1 ovarian): > 100 µM | TGI (RPMI-8226 leukemia): > 100 µM | TGI (UACC-257 melanoma): > 100 µM | TGI (SK-MEL-28 melanoma): > 100 µM | TGI (NCI/ADR-RES ovarian): > 100 µM | TGI (SNB-19 CNS): > 100 µM | TGI (OVCAR-3 ovarian): > 100 µM | TGI (HL-60(TB) leukemia): > 100 µM | TGI (LOX IMVI melanoma): > 100 µM | TGI (HCT-15 colon): > 100 µM | TGI (UO-31 renal): > 100 µM | TGI (A549 NSCLC): > 100 µM | TGI (SF-539 CNS): > 100 µM | TGI (HS 578T breast): 94.2 µM | TGI (OVCAR-4 ovarian): > 100 µM | TGI (CAKI-1 renal): > 100 µM | TGI (NCI-H226 lung): > 100 µM | TGI (NCI-H522 lung): > 100 µM | TGI (786-0 renal): > 100 µM | TGI (MDA-N): > 100 µM | TGI (OVCAR-5 ovarian): > 100 µM | TGI (NCI-H460 lung): > 100 µM | TGI (BT-549 breast): > 100 µM | TGI (SW-620 colon): > 100 µM | TGI (MDA-MB-435): > 100 µM | TGI (M14 melanoma): > 100 µM | TGI (OVCAR-8 ovarian): > 100 µM | TGI (ACHN renal): > 100 µM | TGI (U251 CNS): > 100 µM | TGI (HCT-116 colon): > 100 µM | TGI (MDA-MB-231 breast): > 100 µM | TGI (SR leukemia): > 100 µM | TGI (COLO 205 colon): > 100 µM | TGI (HT29 colon): > 100 µM | TGI (UACC-62 melanoma): > 100 µM | TGI (NCI-H23 lung): > 100 µM | TGI (K-562 leukemia): > 100 µM | TGI (SN12C renal): > 100 µM | TGI (SF-268 CNS): > 100 µM | TGI (KM12 colon): > 100 µM | TGI (SK-MEL-2 melanoma): > 100 µM | TGI (A498 renal): > 100 µM | TGI (SK-MEL-5 melanoma): > 100 µM | TGI (T-47D breast): > 100 µM | TGI (MCF7 breast): > 100 µM | TGI (DU-145 prostate): > 100 µM | TGI (EKVX NSCLC): > 100 µM | TGI (MOLT-4 leukemia): > 100 µM | TGI (HOP-62 NSCLC): > 100 µM | TGI (PC-3 prostate): > 100 µM | TGI (SF-295 CNS): > 100 µM

COC(=O)CCC1=NCC(C)(C)O1
TGI (TK-10 renal): > 10 µM | TGI (IGROV1 ovarian): > 10 µM | TGI (RPMI-8226 leukemia): > 10 µM | TGI (UACC-257 melanoma): > 10 µM | TGI (SK-MEL-28 melanoma): > 10 µM | TGI (NCI/ADR-RES ovarian): > 10 µM | TGI (SNB-19 CNS): > 10 µM | TGI (OVCAR-3 ovarian): > 10 µM | TGI (HCC-2998 colon): > 10 µM | TGI (LOX IMVI melanoma): > 10 µM | TGI (HCT-15 colon): > 10 µM | TGI (UO-31 renal): > 10 µM | TGI (A549 NSCLC): > 10 µM | TGI (SF-539 CNS): > 10 µM | TGI (HS 578T breast): > 10 µM | TGI (OVCAR-4 ovarian): > 10 µM | TGI (CAKI-1 renal): > 10 µM | TGI (NCI-H226 lung): > 10 µM | TGI (NCI-H522 lung): > 10 µM | TGI (SK-OV-3 ovarian): > 10 µM | TGI (CCRF-CEM leukemia): > 10 µM | TGI (786-0 renal): > 10 µM | TGI (MDA-N): > 10 µM | TGI (OVCAR-5 ovarian): > 10 µM | TGI (NCI-H460 lung): > 10 µM | TGI (BT-549 breast): > 10 µM | TGI (SW-620 colon): > 10 µM | TGI (MDA-MB-435): > 10 µM | TGI (M14 melanoma): > 10 µM | TGI (MALME-3M melanoma): > 10 µM | TGI (OVCAR-8 ovarian): > 10 µM | TGI (ACHN renal): > 10 µM | TGI (U251 CNS): > 10 µM | TGI (HCT-116 colon): > 10 µM | TGI (MDA-MB-231 breast): > 10 µM | TGI (SR leukemia): > 10 µM | TGI (COLO 205 colon): > 10 µM | TGI (HT29 colon): > 10 µM | TGI (UACC-62 melanoma): > 10 µM | TGI (NCI-H23 lung): > 10 µM | TGI (SN12C renal): > 10 µM | TGI (SF-268 CNS): > 10 µM | TGI (KM12 colon): > 10 µM | TGI (SK-MEL-2 melanoma): > 10 µM | TGI (SNB-75 CNS): > 10 µM | TGI (A498 renal): > 10 µM | TGI (SK-MEL-5 melanoma): > 10 µM | TGI (T-47D breast): > 10 µM | TGI (MCF7 breast): > 10 µM | TGI (DU-145 prostate): > 10 µM | TGI (EKVX NSCLC): > 10 µM | TGI (MOLT-4 leukemia): > 10 µM | TGI (RXF 393 renal): > 10 µM | TGI (HOP-62 NSCLC): > 10 µM | TGI (PC-3 prostate): > 10 µM | TGI (SF-295 CNS): > 10 µM

Reference: PubChem BioAssay (NCI)
